Consider eleven compounds from PubChem BioAssay (NCI).

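1) Cells in 96-well plates. 2) Compound, 48 h, 5 concentrations. 3) Linear interpolation between surrounding doses. 4) Unreached endpoint = highest concentration. Abbreviation: GI50, concentration required for 50% inhibition of growth. TGI is the concentration that stops growth completely.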

Test systems include HCC-2998 colon; HCT-15 colon; HOP-62 NSCLC; MOLT-4 leukemia; NCI-H226 lung; SF-268 CNS; SF-295 CNS; NCI/ADR-RES ovarian; TK-10 renal; MCF7 breast.
What all share (experiment): inhibition of tumour cell growth, NCI panel, 48 h

On to `Cc1cn(C2CC(O)C(CO)C2C)c(=O)[nH]c1=O` (centres undefined), for which the TGI in the experiment with HCC-2998 colon, in the experiment on HCT-15 colon, in the experiment with HOP-62 NSCLC, with MOLT-4 leukemia, in the experiment with NCI-H226 lung and in the experiment on SF-268 CNS was > 100 µM in each case. For the same compound, the TGI in the experiment on SF-295 CNS was > 100 µM.
Turning to `COc1cc(Oc2nc3ccccc3nc2C(=O)O)cc(OC)c1OC`, the TGI with HCC-2998 colon, in the experiment with HCT-15 colon, with HOP-62 NSCLC, in the experiment with MOLT-4 leukemia, in the experiment with NCI-H226 lung and in the experiment on NCI/ADR-RES ovarian was > 100 µM each time. For the same compound, the TGI in the experiment with SF-268 CNS, in the experiment with SF-295 CNS and in the experiment with TK-10 renal was > 100 µM in each case.
In the case of `C(=N\Nc1ncc(-c2cc3cc4c(cc3o2)OCO4)s1)/c1c[nH]c2ccccc12`, the GI50 in the experiment with HCC-2998 colon is 2.06 µM; with HCT-15 colon, 1.14 µM; in the experiment on HOP-62 NSCLC, 1.6 µM; with MCF7 breast, 0.566 µM; in the experiment on MOLT-4 leukemia, 0.385 µM; in the experiment with SF-268 CNS, 0.589 µM. For the same compound, the GI50 in the experiment with SF-295 CNS is 1.82 µM; in the experiment on TK-10 renal it was 2.4 µM. The TGI with HCC-2998 colon came to 5.13 µM; in the experiment with HCT-15 colon, 3.25 µM; in the experiment on HOP-62 NSCLC, 7.95 µM; with MCF7 breast, 5.39 µM; in the experiment on MOLT-4 leukemia, 9.49 µM; in the experiment on SF-268 CNS it was 2.86 µM. Also, the figures for the TGI with SF-295 CNS and with TK-10 renal were 4.31 µM and 5.59 µM, respectively.
On to `CSC1=Nc2ccccc2-c2nc(-c3ccccc3)cc(-c3ccccc3)c2C1`, for which the TGI with HCC-2998 colon, with HCT-15 colon, with HOP-62 NSCLC, with MOLT-4 leukemia, in the experiment with NCI-H226 lung and in the experiment on NCI/ADR-RES ovarian was > 100 µM each time. Moreover, the TGI in the experiment with SF-295 CNS was determined as 64.2 µM; with TK-10 renal, 36.8 µM.
As to `CC(C)CC(=O)NC(Nc1ccc(S(=O)(=O)Nc2ncccn2)cc1)(C(F)(F)F)C(F)(F)F`, the TGI with HCC-2998 colon, with HCT-15 colon, with HOP-62 NSCLC, in the experiment on MOLT-4 leukemia, in the experiment on NCI-H226 lung and with NCI/ADR-RES ovarian was > 100 µM throughout. Besides, the TGI with SF-268 CNS and with SF-295 CNS was > 100 µM each time.
`CCN(CC)CCCCCCCCNc1c2ccc(Cl)cc2nc2ccc(OC)cc12`: the GI50 was 1.77 µM in the experiment on HCC-2998 colon; 0.966 µM in the experiment on HCT-15 colon; 1.4 µM in the experiment with HOP-62 NSCLC; 0.951 µM in the experiment with MOLT-4 leukemia; 1.74 µM with NCI-H226 lung; 2.46 µM in the experiment with NCI/ADR-RES ovarian. The results for the GI50 with SF-268 CNS, in the experiment on SF-295 CNS and in the experiment with TK-10 renal were 1.7 µM, 1.68 µM and 1.83 µM, respectively. For the same compound, the TGI came to 6.99 µM in the experiment on HCC-2998 colon; 2.46 µM in the experiment on HCT-15 colon; 3.13 µM in the experiment with HOP-62 NSCLC; 4.68 µM with MOLT-4 leukemia; 3.74 µM in the experiment on NCI-H226 lung; 10.3 µM with NCI/ADR-RES ovarian. In addition, the TGI was 3.76 µM with SF-268 CNS, 3.95 µM with SF-295 CNS and 4.24 µM with TK-10 renal.
As to `Nn1c(Cc2ccc(Cl)cc2)n[nH]c1=O`, the TGI with HCC-2998 colon, in the experiment on HCT-15 colon, with HOP-62 NSCLC, in the experiment on MOLT-4 leukemia, in the experiment on NCI-H226 lung and with NCI/ADR-RES ovarian was > 100 µM each time. Besides, the TGI in the experiment with SF-268 CNS, with SF-295 CNS and with TK-10 renal was > 100 µM in each case.
Consider `CCOC(=O)C(=[N+]=[N-])C(=O)C[N+]12CCN(CC1)CC2`, for which the TGI in the experiment on HCC-2998 colon, in the experiment on HCT-15 colon, in the experiment with HOP-62 NSCLC, in the experiment on MOLT-4 leukemia, with NCI-H226 lung and with NCI/ADR-RES ovarian was > 100 µM each time. The TGI in the experiment on SF-268 CNS, with SF-295 CNS and in the experiment with TK-10 renal was > 100 µM throughout.
As for `Cc1cc(O)c(C(C)C)cc1NC(=O)Nc1cccc2ccccc12`, the TGI was 41 µM in the experiment with HCC-2998 colon; 69.1 µM in the experiment with HCT-15 colon; 30.9 µM with HOP-62 NSCLC; > 100 µM in the experiment with MOLT-4 leukemia; 46.7 µM in the experiment on NCI-H226 lung; 76.2 µM with NCI/ADR-RES ovarian. In addition, the TGI was determined as 40.9 µM in the experiment on SF-268 CNS, 28.2 µM in the experiment with SF-295 CNS and 32.5 µM with TK-10 renal.
As for `CO/C(=N\N=C\c1ccc(Cl)cc1)c1ccncc1`, the TGI in the experiment on HCC-2998 colon, with HCT-15 colon, in the experiment on HOP-62 NSCLC, in the experiment on MOLT-4 leukemia, in the experiment on NCI-H226 lung and in the experiment on SF-268 CNS was > 100 µM each time. The TGI in the experiment with SF-295 CNS and in the experiment with TK-10 renal was > 100 µM throughout.
For the compound `CC(C)(C)C#C[P+](c1ccccc1)(c1ccccc1)c1ccccc1`, the TGI is 0.986 µM in the experiment with HCC-2998 colon; 5.9 µM with HCT-15 colon; 1.79 µM with HOP-62 NSCLC; 1.57 µM with MOLT-4 leukemia; 0.984 µM with NCI-H226 lung; 1.48 µM in the experiment on SF-268 CNS. For the same compound, the TGI came out at 1.49 µM with SF-295 CNS and 3.48 µM with TK-10 renal.
